Reference: the supplement of paper PMC10307832

Experiments:
Assay in all cases: relative viability (nuclei count vs DMSO), 5 days (fraction); higher = more cells survive
AGI-6780 + Palbociclib = compound: O=C(Nc1cccc(C(F)(F)F)c1)Nc1cc(S(=O)(=O)NC2CC2)ccc1-c1ccsc1 [AGI-6780] + CC(=O)c1c(C)c2cnc(Nc3ccc(N4CCNCC4)cn3)nc2n(C2CCCC2)c1=O [Palbociclib] (partner 0.5 µM)
Outline: (§1)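 Nuclei were stained with Hoechst during a one-step fixation (final 0.05% Triton X-100, 1% formaldehyde, 1 ug/ml Hoechst) carried out 5 days after dosing, then counted on 4× images. The cells, lung cancer lines in 1536-well plates, had been dosed by pin tool the day after seeding with one drug alone or a fixed anchor-drug dose plus five library-drug doses (not always all listed) in √10 steps. Relative viability is the nuclei count in treated wells divided by that in vehicle wells, and each value is the median of duplicate plates.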

AGI-6780 + Bortezomib = compound: O=C(Nc1cccc(C(F)(F)F)c1)Nc1cc(S(=O)(=O)NC2CC2)ccc1-c1ccsc1 [AGI-6780] + CC(C)C[C@H](NC(=O)[C@H](Cc1ccccc1)NC(=O)c1cnccn1)B(O)O [Bortezomib] (partner 0.002 µM)
Outline: as §1

AGI-6780 + Foretinib = compound: O=C(Nc1cccc(C(F)(F)F)c1)Nc1cc(S(=O)(=O)NC2CC2)ccc1-c1ccsc1 [AGI-6780] + COc1cc2c(Oc3ccc(NC(=O)C4(C(=O)Nc5ccc(F)cc5)CC4)cc3F)ccnc2cc1OCCCN1CCOCC1 [Foretinib] (partner 0.25 µM)
Outline: as §1

AGI-6780 + Pictilisib = compound: O=C(Nc1cccc(C(F)(F)F)c1)Nc1cc(S(=O)(=O)NC2CC2)ccc1-c1ccsc1 [AGI-6780] + CS(=O)(=O)N1CCN(Cc2cc3nc(-c4cccc5[nH]ncc45)nc(N4CCOCC4)c3s2)CC1 [Pictilisib] (partner 1 µM)
Outline: as §1

| Cell Line | relative viability (AGI-6780 + Palbociclib; first compound 0.08 µM) | relative viability (AGI-6780 + Palbociclib; first compound 0.253 µM) | relative viability (AGI-6780 + Palbociclib; first compound 0.8 µM) | relative viability (AGI-6780 + Palbociclib; first compound 2.53 µM) | relative viability (AGI-6780 + Palbociclib; first compound 8 µM) | relative viability (AGI-6780 + Bortezomib; first compound 0.08 µM) | relative viability (AGI-6780 + Bortezomib; first compound 0.253 µM) | relative viability (AGI-6780 + Bortezomib; first compound 0.8 µM) | relative viability (AGI-6780 + Bortezomib; first compound 2.53 µM) | relative viability (AGI-6780 + Bortezomib; first compound 8 µM) | relative viability (AGI-6780 + Foretinib; first compound 0.08 µM) | relative viability (AGI-6780 + Foretinib; first compound 0.253 µM) | relative viability (AGI-6780 + Foretinib; first compound 0.8 µM) | relative viability (AGI-6780 + Foretinib; first compound 2.53 µM) | relative viability (AGI-6780 + Foretinib; first compound 8 µM) | relative viability (AGI-6780 + Pictilisib; first compound 0.08 µM) | relative viability (AGI-6780 + Pictilisib; first compound 0.253 µM) | relative viability (AGI-6780 + Pictilisib; first compound 0.8 µM) | relative viability (AGI-6780 + Pictilisib; first compound 8 µM) | relative viability (AGI-6780 + Pictilisib; first compound 2.53 µM) |
| --- | --- | --- | --- | --- | --- | --- | --- | --- | --- | --- | --- | --- | --- | --- | --- | --- | --- | --- | --- | --- |
| LCLC-97TM1 | 0.197 | 0.223 | 0.235 | 0.212 | 0.207 | 0.867 | 0.78 | 0.871 | 0.528 | 0.68 | 1.09 | 0.929 | 0.929 | 0.864 | 0.84 | 0.195 | 0.218 | 0.257 | 0.245 | – |
| LCLC-103H | 0.487 | 0.476 | 0.526 | 0.445 | 0.463 | 1.11 | 1.17 | 1.02 | 0.939 | 1.18 | 0.883 | 0.745 | 0.702 | 0.652 | 0.748 | 0.582 | 0.681 | 0.516 | 0.663 | 0.457 |
| LOU-NH91 | 0.529 | 0.528 | 0.521 | 0.515 | 0.55 | 0.475 | 0.597 | 0.472 | 0.605 | 0.512 | 0.946 | 0.908 | 0.961 | 0.93 | 0.893 | 0.524 | 0.529 | 0.554 | 0.525 | 0.505 |
| LU99A | 0.417 | 0.435 | 0.494 | 0.334 | 0.452 | 1.11 | 1.04 | 0.99 | 0.92 | 1.26 | 0.915 | 0.813 | 0.874 | 0.633 | 0.738 | 0.396 | 0.339 | 0.339 | 0.317 | 0.273 |
| LXF-289 | 0.606 | 0.65 | 0.586 | 0.586 | 0.6 | 1.02 | 0.993 | 0.976 | 1.03 | 0.957 | 1 | 1 | 1.04 | 0.954 | 0.934 | 0.827 | 0.803 | 0.766 | 0.827 | 0.741 |
| NCI-H23 | 0.437 | 0.528 | 0.457 | 0.394 | 0.541 | 1.08 | 1.2 | 1.02 | 0.86 | 1.19 | 1.12 | 0.968 | 1.02 | 0.96 | 0.865 | 0.614 | 0.571 | 0.624 | 0.609 | 0.437 |
| NCI-H322M | – | 0.516 | 0.446 | 0.434 | 0.499 | 1.08 | 1.15 | 1.35 | 1.27 | 1.39 | 1.06 | 1.01 | 1.1 | 1.07 | 0.982 | 0.518 | 0.572 | 0.526 | 0.524 | 0.585 |
| NCI-H441 | 0.248 | 0.259 | 0.232 | 0.195 | 0.263 | 0.514 | 0.601 | 0.831 | 0.45 | 0.387 | 1.03 | 1.16 | 1.06 | 0.754 | 0.844 | 0.562 | 0.483 | 0.565 | 0.381 | 0.288 |
